# In PubChem BioAssay (NCI):
#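 Cultured in 96-well plates, cells were exposed to test compound for 48 hours across five concentrations. TGI denotes the concentration required for complete inhibition of growth.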 *1 amine or outer side, *2 acyl side, *3 side chain or, on linkers, in order; H or OH if unused. Where a SMILES comes first, the peptide text is derived from it. Bridges are numbered along the chain shown (N, C = ends). Roman numbers before positions name the chains, in order. [ ]: non-standard residue; d: D form. Actinocin(9to1) = Cc1c2oc3c(C)ccc(C(=O)[*:1])c3nc-2c(C(=O)[*:2])c(N)c1=O; NMeV = CN[CH](C(=O)O)C(C)C; Sar = CNCC(=O)O
# Key:
# Assay in all cases: NCI tumour cell line growth inhibition, 48 h
# A498 renal = test system: A498 renal
# MDA-MB-435 = test system: MDA-MB-435
# MCF7 breast = test system: MCF7 breast
# T-47D breast = test system: T-47D breast
# SF-268 CNS = test system: SF-268 CNS
# HS 578T breast = test system: HS 578T breast
# MDA-N = test system: MDA-N
# OVCAR-4 ovarian = test system: OVCAR-4 ovarian
# OVCAR-3 ovarian = test system: OVCAR-3 ovarian
# UACC-62 melanoma = test system: UACC-62 melanoma
SMILES,TGI (A498 renal),TGI (MDA-MB-435),TGI (MCF7 breast),TGI (T-47D breast),TGI (SF-268 CNS),TGI (HS 578T breast),TGI (MDA-N),TGI (OVCAR-4 ovarian),TGI (OVCAR-3 ovarian),TGI (UACC-62 melanoma)
NC(=S)Nc1[nH]c(=S)nc2c1SC1=N/C(=C\c3ccco3)C(=O)N12,> 100 µM,> 100 µM,> 100 µM,> 100 µM,> 100 µM,> 100 µM,> 100 µM,> 100 µM,> 100 µM,> 100 µM
Nc1ccccc1N/C=C\C(=O)C(Cl)(Cl)Cl,38.9 µM,28 µM,30.7 µM,43.1 µM,> 100 µM,> 100 µM,30.9 µM,44.4 µM,–,35.9 µM
CC[C@H](C)[C@H]1NC(=O)[C@@H](NC(=O)[C@@H](CC(C)C)N(C)CC2CCCN2C(=O)C(C)=O)[C@@H](C)OC(=O)[C@H](Cc2ccc(OC)cc2)N(C)C(=O)C2CCCN2C(=O)[C@H](CC(C)C)NC(=O)[C@@H](C)C(=O)[C@H](C(C)C)OC(=O)C[C@@H]1O (some centres not stated),0.0146 µM,0.0105 µM,0.00747 µM,0.012 µM,0.0257 µM,0.0144 µM,0.02 µM,0.00687 µM,0.0151 µM,0.0182 µM
COc1cc(/C=C2\N=C(c3ccccc3)N(c3nc4c(OC)ccc(OC)c4s3)C2=O)cc(OC)c1OC,> 100 µM,> 100 µM,> 100 µM,> 100 µM,> 100 µM,> 100 µM,> 100 µM,> 100 µM,> 100 µM,> 100 µM
COC(OC)C1OC(CO)C(n2ccc(N)nc2=O)C1O (configuration not stated),> 100 µM,> 100 µM,> 100 µM,> 100 µM,> 100 µM,> 100 µM,> 100 µM,> 100 µM,> 100 µM,> 100 µM
O=c1c2cc(I)ccc2nc(Sc2ncccc2[N+](=O)[O-])n1Cc1ccccc1,> 100 µM,> 100 µM,> 100 µM,> 100 µM,> 100 µM,92.3 µM,> 100 µM,> 100 µM,> 100 µM,> 100 µM
CN(C)CCNC(=O)c1cccc2nc3c(nc12)-c1ccccc1C3=O,29.5 µM,32.1 µM,24.3 µM,37.4 µM,32.2 µM,44 µM,25.7 µM,58.2 µM,43.2 µM,60.4 µM
CNC(=O)c1cc(NC(=O)N(CCC#N)CCN(C(=O)N[C@@H](Cc2ccccc2)C(=O)N[C@@H](CC(C)C)C(=O)NC)c2ccccc2)ccc1OC,> 91.5 µM,> 100 µM,> 100 µM,> 85.9 µM,> 65.7 µM,> 100 µM,> 100 µM,> 100 µM,> 100 µM,> 55.4 µM
CCc1ccc2[nH]c(O)c(-c3[nH]c4ccccc4c3N=O)c2c1,15 µM,21.9 µM,6.05 µM,32.8 µM,22.3 µM,30.5 µM,20.5 µM,21.8 µM,14.4 µM,23 µM
CSc1c(C#N)c(=O)[nH]c2n[nH]c(C)c12,> 100 µM,> 100 µM,> 100 µM,> 100 µM,> 100 µM,> 100 µM,> 100 µM,> 100 µM,> 100 µM,> 100 µM
CC(C)(C)C1(COC(=O)c2ccc(N)cc2)COC1,> 100 µM,> 100 µM,> 100 µM,> 100 µM,> 100 µM,> 100 µM,> 100 µM,> 100 µM,> 100 µM,> 100 µM
C=CCSC1=N/C(=C\c2ccccc2)C(=O)N1CC=C,83.9 µM,> 100 µM,> 100 µM,98.6 µM,> 57.7 µM,> 89.4 µM,> 100 µM,> 100 µM,> 93.9 µM,> 100 µM
O=[N+]([O-])c1ccc(N=Nc2c(O)c(S(=O)(=O)O)cc3cc(S(=O)(=O)O)ccc23)cc1,> 100 µM,> 100 µM,> 100 µM,> 100 µM,–,> 100 µM,> 100 µM,> 100 µM,> 100 µM,> 100 µM
C=C(CC[C@@H](C(=O)O)[C@H]1[C@H](O)C[C@@]2(C)C3=CC[C@@H](C(=C)C)[C@](C)(CCC(=O)O)C3=CC[C@]12C)C(C)C,38.8 µM,33.5 µM,32.6 µM,50.7 µM,–,42.2 µM,32 µM,36.3 µM,33.2 µM,29.1 µM
CCOC(=O)CNC(=O)C(C)NC(=O)C(NC(=O)CC(c1ncc[nH]1)c1ncc[nH]1)C(C)CC (configuration not stated),> 100 µM,> 100 µM,> 100 µM,> 100 µM,> 100 µM,> 100 µM,> 100 µM,> 100 µM,> 100 µM,> 100 µM
COc1ccc(N=N/C(=N/NC(=O)c2ccccc2)c2ccc(N(CCC#N)CCC#N)cc2C)cc1,> 100 µM,> 100 µM,> 100 µM,> 100 µM,> 100 µM,75.2 µM,44.4 µM,> 100 µM,> 100 µM,> 100 µM
O=C(CCCCCCCCC(=O)N1C(=O)CC(=O)N(c2cccc(Cl)c2)C1=S)N1C(=O)CC(=O)N(c2cccc(Cl)c2)C1=S,> 100 µM,> 100 µM,> 100 µM,> 100 µM,> 100 µM,> 100 µM,> 100 µM,> 100 µM,65 µM,84.3 µM
CCCCc1ccc(Nc2ncc3[nH]cnc3n2)cc1,45.4 µM,> 100 µM,> 100 µM,61 µM,50.1 µM,33.9 µM,> 100 µM,80.1 µM,28.9 µM,49.6 µM
O=C1COc2ccc([N+](=O)[O-])cc2C(=O)C1,> 10 µM,> 10 µM,> 10 µM,> 10 µM,> 10 µM,> 10 µM,> 10 µM,> 10 µM,> 10 µM,> 10 µM
CCOC(=O)/C=C(/C(=O)OCC)n1cc(C)c(=O)n(Cc2cn(COCCOC(C)=O)nn2)c1=O,> 100 µM,52.7 µM,43.5 µM,> 64.3 µM,48.2 µM,> 78.3 µM,> 85.4 µM,40 µM,56.1 µM,40.9 µM
COc1cc(CC2c3cc(OC)c(OC)cc3CCN2C)c(Oc2cc3c(cc2OC)-c2c(O)c(OC)cc4c2C(C3)N(C)CC4)cc1OC (configuration not stated),43 µM,94.3 µM,29.1 µM,55 µM,46 µM,45.2 µM,36.8 µM,90.7 µM,> 100 µM,40.1 µM
Cc1[nH]c2ccccc2c1C=Nc1ccc(N=Cc2c(C)[nH]c3ccccc23)cc1,> 100 µM,51.7 µM,30.1 µM,> 100 µM,> 100 µM,> 100 µM,> 100 µM,> 100 µM,> 100 µM,> 100 µM
O=C1c2c(nc3ccccc3c2-c2ccccc2)CN1Nc1ccccn1,18.1 µM,> 100 µM,> 100 µM,> 100 µM,> 100 µM,67.4 µM,> 100 µM,> 100 µM,> 100 µM,> 100 µM
C(=C\c1ccccc1)/C=N/c1nc2cc3sc(/N=C/C=C/c4ccccc4)nc3cc2s1,> 100 µM,> 100 µM,> 100 µM,> 100 µM,> 100 µM,> 100 µM,> 100 µM,> 100 µM,> 100 µM,> 100 µM
COc1ccc(-c2c(N)n(-c3cccc(C(=O)O)c3)c(=O)c3cc([N+](=O)[O-])ccc23)cc1,> 100 µM,> 100 µM,> 100 µM,> 100 µM,> 100 µM,> 100 µM,> 100 µM,> 100 µM,> 100 µM,> 100 µM
O=S1(=O)c2ccccc2C(=NO)c2ccccc21,> 100 µM,> 100 µM,> 100 µM,> 100 µM,> 100 µM,> 100 µM,> 100 µM,> 100 µM,> 100 µM,> 100 µM
COc1cccc(N(CN2CC=CC2=O)C(C)=O)c1,> 100 µM,> 100 µM,> 100 µM,> 100 µM,> 100 µM,> 100 µM,> 100 µM,> 100 µM,> 100 µM,> 100 µM
CN(C)Cc1cc(O)c(O)c(CN(C)C)c1,> 100 µM,> 100 µM,> 100 µM,> 100 µM,> 100 µM,> 100 µM,> 100 µM,> 100 µM,> 100 µM,> 100 µM
Cc1cc(-c2nc3ccccc3s2)ccc1NC(=O)[C@H](C)N,28.6 µM,19.9 µM,20.4 µM,21.4 µM,52.5 µM,74.4 µM,24.1 µM,26.2 µM,24.7 µM,29.1 µM
"Cc1c2oc3c(C)ccc(C(=O)NC4C(=O)NC(C(C)O)C(=O)N5CCCC5C(=O)N(C)CC(=O)N(C)C(C(C)C)C(=O)OC4C)c3nc-2c(C(=O)NC2C(=O)NC(C(C)O)C(=O)N3CCCC3C(=O)N(C)CC(=O)N(C)C(C(C)C)C(=O)OC2C)c(N)c1=O (configuration not stated) (I: TTP[Sar][NMeV] / II: TTP[Sar][NMeV]; ester I:1-I:C, II:1-II:C; linker I:N-II:N via Actinocin(9to1); configuration not given here)",2.71 µM,3.81 µM,1.06 µM,> 100 µM,> 100 µM,72 µM,11.8 µM,> 63.3 µM,4.71 µM,0.528 µM
